Literature values in PubChem BioAssay AID1259409 (Chemical Carcinogenesis Research Information System (CCRIS), 2018).

Tested on: rodent chemically induced tumor inhibition, incidence and multiplicity
Experiment: CCRIS tumor inhibitor studies
Details: Route [Inhibitor]: ORAL

For `O=[Se](O)O`, the “tumour outcome (control, treated, inhibition, significance)” value (Carcinogen: N-METHYL-N-NITROSOUREA, 684-93-5, Dose [Inhibitor]: 5 MG IN DIET DAILY STARTING AT AGE 5 WK 2 WK PRIOR TO FIRST CARCINOGEN TREATMENT AND CONTINUING FOR DURATION OF STUDY (S, Species: HAMSTER, Strain/Sex: SYRIAN/MALE, Target Tissue: Type of Lesion: TRACHEA: NEOPLASM, Dose [Carcinogen]: 0.5% SOLUTION (PH 5) 1/WK FOR 12 WK, Promoter: NONE USED) is given as 11/34 (32%), 11/31 (35%), -9%, not significant, the “tumour outcome (control, treated, inhibition, significance)” value (Carcinogen: N-METHYL-N-NITROSOUREA, 684-93-5, Dose [Inhibitor]: 5 MG/KG IN DIET DAILY STARTING 7 D AFTER CARCINOGEN TREATMENT AND CONTINUING FOR DURATION OF STUDY (STUDY DURATION: 90 D, Species: RAT, Strain/Sex: SPRAGUE-DAWLEY/FEMALE, Target Tissue: Type of Lesion: MAMMARY GLAND: ADENOCARCINOMA, Dose [Carcinogen]: 50 MG/KG BW IN 0.9% SALINE ONCE AT 50 D OF AGE, Promoter: NONE) is given as 95%, 85%, 11%, not calculated and the “tumour outcome (control, treated, inhibition, significance)” value (Carcinogen: N-NITROSOBIS(2-OXOPROPYL)AMINE, 60599-38-4, Dose [Inhibitor]: 0, 4 PPM IN DRINKING WATER BEGINNING POST CARCINOGEN TREATMENT AND CONTINUING FOR 37 WK (STUDY DURATION: 40 WK), Species: HAMSTER, Strain/Sex: SYRIAN/FEMALE, Target Tissue: Type of Lesion: PANCREAS: ADENOCARCINOMA, Dose [Carcinogen]: 10 MG/KG 1/WK FOR 3 WK, Promoter: NONE USED) is given as 11/28 (39%), 9/30 (30%), 23%, not calculated. For the same compound, the “tumour outcome (control, treated, inhibition, significance)” value (Carcinogen: NITROSOMETHYL-3-CARBOXYPROPYLAMINE, 61445-55-4, Dose [Inhibitor]: 0, 0.35 PPM IN DIET BEGINNING 1 WK PRIOR TO CARCINOGEN DOSE AND CONTINUED FOR DURATION OF STUDY (STUDY DURATION: LIFETIM, Species: RAT, Strain/Sex: F344/FEMALE, Target Tissue: Type of Lesion: BLADDER: TUMORS, Dose [Carcinogen]: 20 ML OF A 600 MG/L SOLUTION IN DRINKING WATER 5 D/WK FOR 28 WK, Promoter: NONE USED) was 18/20 (90%), 18/20 (90%), 0%, not significant, the “tumour outcome (control, treated, inhibition, significance)” value (Carcinogen: NITROSOMETHYL-3-CARBOXYPROPYLAMINE, 61445-55-4, Dose [Inhibitor]: 0, 0.7 PPM IN DIET BEGINNING 1 WK PRIOR TO CARCINOGEN DOSE AND CONTINUED FOR DURATION OF STUDY (STUDY DURATION: LIFETIME, Species: RAT, Strain/Sex: F344/FEMALE, Target Tissue: Type of Lesion: BLADDER: TUMORS, Dose [Carcinogen]: 20 ML OF A 600 MG/L SOLUTION IN DRINKING WATER 5 D/WK FOR 28 WK, Promoter: NONE USED) was 18/20 (90%), 20/20 (100%), -11%, not significant and the “tumour outcome (control, treated, inhibition, significance)” value (Carcinogen: NITROSOMETHYL-3-CARBOXYPROPYLAMINE, 61445-55-4, Dose [Inhibitor]: 0, 1.4 PPM IN DIET BEGINNING 1 WK PRIOR TO CARCINOGEN DOSE AND CONTINUED FOR DURATION OF STUDY (STUDY DURATION: LIFETIME, Species: RAT, Strain/Sex: F344/FEMALE, Target Tissue: Type of Lesion: BLADDER: TUMORS, Dose [Carcinogen]: 20 ML OF A 600 MG/L SOLUTION IN DRINKING WATER 5 D/WK FOR 28 WK, Promoter: NONE USED) was 18/20 (90%), 20/20 (100%), -11%, not significant. For the same compound, the “tumour outcome (control, treated, inhibition, significance)” value (Carcinogen: NITROSOMETHYL-3-CARBOXYPROPYLAMINE, 61445-55-4, Dose [Inhibitor]: 0, 2.1 PPM IN DIET BEGINNING 1 WK PRIOR TO CARCINOGEN DOSE AND CONTINUED FOR DURATION OF STUDY (STUDY DURATION: LIFETIME, Species: RAT, Strain/Sex: F344/FEMALE, Target Tissue: Type of Lesion: BLADDER: TUMORS, Dose [Carcinogen]: 20 ML OF A 600 MG/L SOLUTION IN DRINKING WATER 5 D/WK FOR 28 WK, Promoter: NONE USED) was 18/20 (90%), 17/20 (85%), 6%, not significant, the “tumour outcome (control, treated, inhibition, significance)” value (Carcinogen: NITROSOMETHYLCYCLOHEXYLAMINE, 5432-28-0, Dose [Inhibitor]: 0, 0.35 PPM IN DIET BEGINNING 1 WK PRIOR TO CARCINOGEN DOSE AND CONTINUED FOR DURATION OF STUDY (STUDY DURATION: LIFETIM, Species: RAT, Strain/Sex: F344/FEMALE, Target Tissue: Type of Lesion: ESOPHAGUS: TUMORS, Dose [Carcinogen]: 20 ML OF A 5 MG/L SOLUTION IN DRINKING WATER 5 D/WK FOR 28 WK, Promoter: NONE USED) was 17/20 (85%), 17/20 (85%), 0%, not significant and the “tumour outcome (control, treated, inhibition, significance)” value (Carcinogen: NITROSOMETHYLCYCLOHEXYLAMINE, 5432-28-0, Dose [Inhibitor]: 0, 0.7 PPM IN DIET BEGINNING 1 WK PRIOR TO CARCINOGEN DOSE AND CONTINUED FOR DURATION OF STUDY (STUDY DURATION: LIFETIME, Species: RAT, Strain/Sex: F344/FEMALE, Target Tissue: Type of Lesion: ESOPHAGUS: TUMORS, Dose [Carcinogen]: 20 ML OF A 5 MG/L SOLUTION IN DRINKING WATER 5 D/WK FOR 28 WK, Promoter: NONE USED) was 17/20 (85%), 17/20 (85%), 0%. For the same compound, the “tumour outcome (control, treated, inhibition, significance)” value (Carcinogen: NITROSOMETHYLCYCLOHEXYLAMINE, 5432-28-0, Dose [Inhibitor]: 0, 1.4 PPM IN DIET BEGINNING 1 WK PRIOR TO CARCINOGEN DOSE AND CONTINUED FOR DURATION OF STUDY (STUDY DURATION: LIFETIME, Species: RAT, Strain/Sex: F344/FEMALE, Target Tissue: Type of Lesion: ESOPHAGUS: TUMORS, Dose [Carcinogen]: 20 ML OF A 5 MG/L SOLUTION IN DRINKING WATER 5 D/WK FOR 28 WK, Promoter: NONE USED) was 17/20 (85%), 16/20 (80%), 6%, not significant, the “tumour outcome (control, treated, inhibition, significance)” value (Carcinogen: NITROSOMETHYLCYCLOHEXYLAMINE, 5432-28-0, Dose [Inhibitor]: 0, 2.1 PPM IN DIET BEGINNING 1 WK PRIOR TO CARCINOGEN DOSE AND CONTINUED FOR DURATION OF STUDY (STUDY DURATION: LIFETIME, Species: RAT, Strain/Sex: F344/FEMALE, Target Tissue: Type of Lesion: ESOPHAGUS: TUMORS, Dose [Carcinogen]: 20 ML OF A 5 MG/L SOLUTION IN DRINKING WATER 5 D/WK FOR 28 WK, Promoter: NONE USED) was 17/20 (85%), 18/20 (90%), -6%, not significant and the “tumour outcome (control, treated, inhibition, significance)” value (Carcinogen: NONE USED, Dose [Inhibitor]: 0.5 PPM IN DIET DAILY STARTING AT AGE 6 WK AND CONTINUING FOR DURATION OF STUDY (STUDY DURATION: 13 MO), Species: MOUSE, Strain/Sex: BALB/FEMALE, Target Tissue: Type of Lesion: MAMMARY GLAND: ADENOCARCINOMA, Promoter: NONE USED) was 15/30 (50%), 8/30 (27%), 46%, p<0.05. For the same compound, the “tumour outcome (control, treated, inhibition, significance)” value (Carcinogen: NONE USED, Dose [Inhibitor]: 2 PPM IN DIET DAILY STARTING AT AGE 6 WK AND CONTINUING FOR DURATION OF STUDY (STUDY DURATION: 13 MO), Species: MOUSE, Strain/Sex: BALB/FEMALE, Target Tissue: Type of Lesion: MAMMARY GLAND: ADENOCARCINOMA, Promoter: NONE USED) was 15/30 (50%), 6/30 (20%), 60%, p<0.05, the outcome (Carcinogen: UV-B IRRADIATION, Dose [Inhibitor]: 0, 0.5 MG/KG DIET FOR 29 WK BEGINNING 1 WK PRIOR TO CARCINOGEN TREATMENT (STUDY DURATION: 29 WK), Species: MOUSE, Strain/Sex: SKH:HR-1/FEMALE, Target Tissue: Type of Lesion: SKIN: TUMOR, Dose [Carcinogen]: 90 MJ/CM2 3/WK FOR 20 WK, Promoter: NONE USED) was 29, 17, 41%, p<0.05 and the “tumour outcome (control, treated, inhibition, significance)” value (Dose [Inhibitor]: 0, 3 PPM IN DRINKING WATER AD LIBITUM FOR DURATION OF STUDY (STUDY DURATION: 79 WK), Species: RAT, Strain/Sex: WISTAR/MALE, Target Tissue: Type of Lesion: LIVER: CARCINOMA, Dose [Carcinogen]: 126 UG/WK IN DRINKING WATER FOR 27 WK, Promoter: NONE USED) was 61%, 0%, 100%, not calculated. For the same compound, the “tumour outcome (control, treated, inhibition, significance)” value (Dose [Inhibitor]: 0, 6 PPM IN DRINKING WATER AD LIBITUM FOR DURATION OF STUDY (STUDY DURATION: 79 WK), Species: RAT, Strain/Sex: WISTAR/MALE, Target Tissue: Type of Lesion: LIVER: CARCINOMA, Dose [Carcinogen]: 126 UG/WK IN DRINKING WATER FOR 27 WK, Promoter: NONE USED) was 61%, 0%, 100%, not calculated.
